Among the data in patent publication EP0761679A1, “N-Butylsulfonate esters of estrogens” (ELI LILLY AND COMPANY, priority 1995, dated 1997) are response vs control in vivo values, retold here.

The test system of the experiment is ovariectomized rat. In words: ovariectomized (ovex) rat model, uterine wet weight after four days of oral treatment. The format is in vivo, Sprague Dawley rats. The following applies: 96 h, 0.1 mg/kg P.O. (gavage in 0.5 mL of 1% carboxymethylcellulose suspension), ovariectomized female rats, read-out: Uterine weight as percent control @ 0.1 mg/kg P.O. On the procedure:
Seventy-five day old female Sprague Dawley rats (weight range of 225-275 g) were obtained from Charles River Laboratories (Portage, MI). The animals were either bilaterally ovariectomized or exposed to a sham surgical procedure at Charles River Laboratories, and then shipped after one week. They were housed in groups of three and had ad libitum access to food and water. Room temperature was maintained at 22.2° C with 40% relative humidity. The photo-period was 12 hours of light and 12 hours of darkness. One week after arrival (thus, 14 days post-ovariectomy), the rats were treated with vehicle, 17-α-ethinyl estradiol, parent hydroxy estrogens, or a compound of formula I was initiated. After four days of treatment, blood was collected by cardiac puncture, the animals were sacrificed by carbon dioxide asphyxiation and the uteri were removed and wet weight determined. […] All compounds were given by oral dosage (gavage in 0.5 mL of 1% carboxymethylcellulose suspension). For comparison purposes, the data represented are for 0.1 mg/kg for all compounds. The positive control was 0.1 mg/kg of 17-α-ethinyl estradiol, a known, orally available estrogen.
As for `C[C@]12CC[C@@H]3c4ccc(OS(C)(=O)=O)cc4CC[C@H]3[C@@H]1CC[C@@H]2OS(C)(=O)=O` [3,17-β-di-methanesulfonoyl estradiol], the response vs control in vivo at 0.1 mg/kg was 0%.

On to `CCCCS(=O)(=O)Oc1ccc2c(c1)CC[C@@H]1[C@@H]2CC[C@]2(C)[C@@H](OS(=O)(=O)CCCC)CC[C@@H]12` [3,17-β-di-n-butylsulfonoyl estradiol], for which the response vs control in vivo at 0.1 mg/kg was 112%.

`C[C@]12CC[C@@H]3c4ccc(OS(C)(=O)=O)cc4CC[C@H]3[C@@H]1CCC2=O` [3-methanesulfonoyl estrone]: the response vs control in vivo at 0.1 mg/kg amounted to 0%.

`C[C@]12CC[C@@H]3c4ccc(OS(C)(=O)=O)cc4CC[C@H]3[C@@H]1CC[C@@H]2O` [3-methanesulfonoyl-17-β-estradiol]: the response vs control in vivo at 0.1 mg/kg is 17%.

Consider `CCCCS(=O)(=O)Oc1ccc2c(c1)CC=C1[C@@H]2CC[C@]2(C)C(=O)CC[C@@H]12` [3-n-butylsulfonoyl equilin], for which the response vs control in vivo at 0.1 mg/kg is 119%.

For the molecule `CCCCS(=O)(=O)Oc1ccc2c(c1)CC[C@@H]1[C@@H]2CC[C@]2(C)C(=O)CC[C@@H]12` [3-n-butylsulfonyl estrone, 3-n-butylsulfonoyl estrone], the response vs control in vivo at 0.1 mg/kg was 67%.

For the molecule `C[C@]12CC[C@@H]3c4ccc(OS(=O)(=O)c5ccccc5)cc4CC[C@H]3[C@@H]1CCC2=O` [3-phenylsulfonoyl estrone], the response vs control in vivo at 0.1 mg/kg was 10%.

For `C[C@]12CC[C@@H]3c4ccc(OS(=O)(=O)c5ccccc5)cc4CC[C@H]3[C@@H]1CC[C@@H]2O` [3-phenylsulfonoyl-17-β-estradiol], the response vs control in vivo at 0.1 mg/kg was 0%.

Regarding `C[C@]12CC[C@@H]3c4ccc(O)cc4CC[C@H]3[C@@H]1CC[C@@H]2O` [17-β-estradiol], the response vs control in vivo at 0.1 mg/kg was determined as 43%.

Regarding `C[C@]12CC[C@H]3C(=CCc4cc(O)ccc43)[C@@H]1CCC2=O` [Equilin], the response vs control in vivo at 0.1 mg/kg came to 47%.

With `C[C@]12CC[C@@H]3c4ccc(O)cc4CC[C@H]3[C@@H]1CCC2=O` [Estrone], the response vs control in vivo at 0.1 mg/kg stood at 35%.
